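How tested: cells in 96-well plates exposed to compound for 48 hours at five concentrations. GI50: concentration for 50% inhibition of growth.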 Activity calls are given as the source filed them. Rule as the data show it: active = GI50 up to about 1.1 µM and inactive = higher.
How the values were obtained:
Assay in all cases: growth of human tumour cells (NCI), 48 h
XF498 = system: XF498
HOP-18 = system: HOP-18
SNB-78 = system: SNB-78
KM-20L2 = system: KM-20L2
DLD-1 = system: DLD-1
DMS-273 = system: DMS-273
LXFL 529 = system: LXFL 529
DMS-114 = system: DMS-114
RXF 631 = system: RXF 631

SMILES | GI50 (XF498) | GI50 (HOP-18) | GI50 (SNB-78) | GI50 (KM-20L2) | GI50 (DLD-1) | GI50 (DMS-273) | GI50 (LXFL 529) | GI50 (DMS-114) | GI50 (RXF 631)
C#CCNC(=O)NC(CCCCNC(=O)OCc1ccccc1)C(=O)OCc1ccccc1 (stereo not drawn) | 19.3 µM (inactive) | 23 µM (inactive) | 23.9 µM (inactive) | > 100 µM (inactive) | > 100 µM (inactive) | > 100 µM (inactive) | > 100 µM (inactive) | 40.7 µM (inactive) | 
C#CCOCn1cnc2c(Sc3c([N+](=O)[O-])ncn3C)ncnc21 | > 100 µM (inactive) |  |  | > 100 µM (inactive) | > 100 µM (inactive) | > 100 µM (inactive) | 55.8 µM (inactive) | > 100 µM (inactive) | > 100 µM (inactive)
CC12OC3CC(O1)C1(C=O)C4CCC5(C)C(c6ccc(=O)oc6)CCC5(O)C4CCC1(C3)O2 (stereo not drawn) |  | 0.252 µM (active) | 0.131 µM (active) | 0.298 µM (active) | 0.0995 µM (active) | 0.0519 µM (active) | 0.139 µM (active) | 0.0414 µM (active) | 
CCOC(=O)C(=O)NNc1nc2c(s1)C(=O)c1ccccc1C2=O | 2.09 µM (inactive) | 2.24 µM (inactive) | 2.54 µM (inactive) | 18.1 µM (inactive) | 5.04 µM (inactive) | 4.57 µM (inactive) | 1.82 µM (inactive) | 1.76 µM (inactive) | 11.2 µM (inactive)
O=C1CC(c2c(-c3ccccc3)[nH]c3ccccc23)C(=O)N1 (stereo not drawn) | > 100 µM (inactive) |  | > 100 µM (inactive) | > 100 µM (inactive) | > 100 µM (inactive) | > 100 µM (inactive) | > 100 µM (inactive) | > 100 µM (inactive) | > 100 µM (inactive)
Cc1ccc(C2(O)CC(c3ccc([N+](=O)[O-])o3)=NN2C(=O)COc2ccccc2Cl)cc1 (stereo not drawn) | 16.9 µM (inactive) | 20.6 µM (inactive) | 42.6 µM (inactive) | 8.65 µM (inactive) | 6.08 µM (inactive) | 12.9 µM (inactive) | 6.59 µM (inactive) | 12.8 µM (inactive) | 6.87 µM (inactive)
O=C1c2cccc(O)c2C(=O)c2cccc(O)c21 [ANTHRARUFIN] | > 100 µM (inactive) |  | > 100 µM (inactive) |  | > 100 µM (inactive) | > 100 µM (inactive) | > 100 µM (inactive) |  | 
CC1NS(=O)(=O)N(C)C1=O (stereo not drawn) | > 100 µM (inactive) |  | > 100 µM (inactive) |  | > 100 µM (inactive) | > 100 µM (inactive) | > 100 µM (inactive) | > 100 µM (inactive) | > 100 µM (inactive)
Nc1nc(O)c2c(ncn2CCO)n1 | > 100 µM (inactive) | > 100 µM (inactive) | > 100 µM (inactive) | > 100 µM (inactive) | > 100 µM (inactive) | > 100 µM (inactive) | > 100 µM (inactive) |  | 
CC(C(=O)c1ccc(O)cc1)C1(O)C(=O)Nc2c(Cl)cc(Cl)cc21 (stereo not drawn) | 23.6 µM (inactive) |  | 46.8 µM (inactive) | > 92.5 µM (inactive) | > 89.7 µM (inactive) | 70.5 µM (inactive) | 26.9 µM (inactive) | 13.9 µM (inactive) | > 84.9 µM (inactive)
NC1=NS(=O)(=O)Nc2nc(-c3ccccc3)c(-c3ccccc3)nc21 | > 100 µM (inactive) | > 100 µM (inactive) | > 100 µM (inactive) | > 100 µM (inactive) | > 100 µM (inactive) | > 100 µM (inactive) | > 100 µM (inactive) |  | 
COC(=O)C(=C\Sc1ccccc1)/C=C/C(=O)OC(C)(C)C | 15 µM (inactive) | 16.2 µM (inactive) | 15.1 µM (inactive) | 17.1 µM (inactive) | 2.62 µM (inactive) | 11.9 µM (inactive) | 3.5 µM (inactive) | 11.2 µM (inactive) | 
Cc1ccc(O)c(C(=O)CCCC(=O)c2cc(C)ccc2O)c1 | > 100 µM (inactive) | > 100 µM (inactive) | 55.8 µM (inactive) | > 100 µM (inactive) | > 100 µM (inactive) | 55.3 µM (inactive) | > 100 µM (inactive) | 32.9 µM (inactive) | 
COC(=O)/C(C#N)=C1\CCc2ccccc21 | > 100 µM (inactive) |  |  | > 100 µM (inactive) | > 100 µM (inactive) | > 100 µM (inactive) | > 100 µM (inactive) | > 100 µM (inactive) | 
CCOC(=O)CN.CCOC(=O)Nc1ccc(S(=O)(=O)OC)cc1.CCOC(=O)Nc1ccc(S(=O)(=O)OC)cc1 |  | > 50 µM (inactive) | > 50 µM (inactive) | > 50 µM (inactive) | > 50 µM (inactive) | > 50 µM (inactive) | > 50 µM (inactive) | > 50 µM (inactive) | > 50 µM (inactive)
N#Cc1c2nc3ccccc3nc2n2ccccc12 | > 100 µM (inactive) |  | > 100 µM (inactive) | > 100 µM (inactive) | > 100 µM (inactive) | > 100 µM (inactive) | > 100 µM (inactive) | > 100 µM (inactive) | 
O=C1C(Cl)C(c2cc(Br)ccc2O)N1n1cnc2ccccc2c1=O (stereo not drawn) | 28.5 µM (inactive) | 6.3 µM (inactive) | 30.9 µM (inactive) | 22.2 µM (inactive) | 15.6 µM (inactive) | 15.7 µM (inactive) | 17.1 µM (inactive) | 5.46 µM (inactive) | 
CC1=C(/C=C/C(C)=C/C=C/C(C)=C/C(=O)O)C(C)(C)CCC1 [TRETINOIN] | > 100 µM (inactive) | > 100 µM (inactive) |  | > 100 µM (inactive) | > 100 µM (inactive) | > 100 µM (inactive) | > 100 µM (inactive) | > 100 µM (inactive) | 
Fc1ccc(C2SCc3nc4ccccc4n32)c(F)c1 (stereo not drawn) |  | > 100 µM (inactive) | 38.1 µM (inactive) | > 100 µM (inactive) | 67.6 µM (inactive) | 38 µM (inactive) |  | 31.8 µM (inactive) | 34.5 µM (inactive)
CCc1nc2c(O)ccc(O)c2nc1C | 24.2 µM (inactive) | 20.9 µM (inactive) | 27.8 µM (inactive) | 18.6 µM (inactive) | 2.9 µM (inactive) | 19.9 µM (inactive) | 4.97 µM (inactive) | 18.2 µM (inactive) | 19.1 µM (inactive)
Cn1ccc(=NS(=O)(=O)c2ccccc2)cc1 | > 100 µM (inactive) | 85.3 µM (inactive) | > 100 µM (inactive) | > 100 µM (inactive) | > 100 µM (inactive) | > 100 µM (inactive) | > 100 µM (inactive) | > 100 µM (inactive) | > 100 µM (inactive)
COc1ccc2nc3c(C(=O)NCCN(C)C)cccc3nc2c1 |  | 27.7 µM (inactive) | 7.16 µM (inactive) |  |  | 4.42 µM (inactive) |  | 5.82 µM (inactive) | 
CC(C)(Br)C(=O)C(Br)Br | 11.6 µM (inactive) |  | 5.06 µM (inactive) | 18 µM (inactive) | 1.77 µM (inactive) | 12.6 µM (inactive) | 2.23 µM (inactive) | 5.36 µM (inactive) | 14 µM (inactive)
Nc1ccn(C2CCC(CO)O2)c(=O)n1 (stereo not drawn) | > 100 µM (inactive) | 98.9 µM (inactive) | > 65.6 µM (inactive) | > 100 µM (inactive) | > 100 µM (inactive) | > 100 µM (inactive) |  | > 100 µM (inactive) | 
